# According to ChEMBL document CHEMBL1201862, “PubChem BioAssay data set” (2004):
#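 How tested: cells in 96-well plates exposed to compound for 48 hours at five concentrations. GI50 marks 50% less growth.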 Activity calls are given as the source filed them. No stated cut-off is given here; in the data, active = GI50 up to about 1.1 µM and inactive = higher.
# Key:
# Assay in all cases: NCI tumour cell line growth inhibition, 48 h
# [1] = test system: SF-268
# [2] = test system: TK-10
# [3] = test system: NCI-H23
# [4] = test system: SK-MEL-5
# [5] = test system: 786-0
# [6] = test system: HL-60
# [7] = test system: DLD-1
# [8] = test system: SK-OV-3
# [9] = test system: RPMI-8226
# [10] = test system: UO-31
# [11] = test system: SNB-75
# [12] = test system: SN12C
# [13] = test system: U-251
# [14] = test system: OVCAR-3
# [15] = test system: A549
# [16] = test system: ACHN
SMILES,GI50 [1],GI50 [2],GI50 [3],GI50 [4],GI50 [5],GI50 [6],GI50 [7],GI50 [8],GI50 [9],GI50 [10],GI50 [11],GI50 [12],GI50 [13],GI50 [14],GI50 [15],GI50 [16]
COC(=O)c1nc(N)nc(O)c1CCCCCc1c(O)nc(N)nc1C(=O)OC,> 50 µM (inactive),> 50 µM (inactive),> 50 µM (inactive),> 50 µM (inactive),> 50 µM (inactive),> 50 µM (inactive),> 50 µM (inactive),> 50 µM (inactive),> 50 µM (inactive),> 50 µM (inactive),> 50 µM (inactive),> 50 µM (inactive),> 50 µM (inactive),> 50 µM (inactive),> 50 µM (inactive),> 50 µM (inactive)
CCn1c2ccccc2c2ccc3c(c21)C(=O)C=CC3=O,19.9 µM (inactive),16.4 µM (inactive),22.5 µM (inactive),< 0.01 µM (active),1.89 µM (inactive),2.43 µM (inactive),3.85 µM (inactive),18.6 µM (inactive),10.3 µM (inactive),10 µM (inactive),29.6 µM (inactive),18.2 µM (inactive),15.9 µM (inactive),13.5 µM (inactive),43.6 µM (inactive),16.5 µM (inactive)
CCN(CC)c1c(C(=O)/C=C/c2ccc(F)cc2)c(-c2ccccc2)nn(C)c1=O,8.79 µM (inactive),17.7 µM (inactive),4.12 µM (inactive),8.89 µM (inactive),10.3 µM (inactive),2.9 µM (inactive),3.63 µM (inactive),11.9 µM (inactive),2.94 µM (inactive),11.3 µM (inactive),4.51 µM (inactive),6.93 µM (inactive),5.98 µM (inactive),3.82 µM (inactive),8.69 µM (inactive),6.9 µM (inactive)
NC1=NN(c2ccccc2)C(=O)C1C(=O)C(=O)Nc1ccc(Cl)c(Cl)c1 (stereo not given),> 100 µM (inactive),> 100 µM (inactive),> 100 µM (inactive),> 100 µM (inactive),> 100 µM (inactive),86.1 µM (inactive),> 100 µM (inactive),> 100 µM (inactive),> 100 µM (inactive),> 100 µM (inactive),37.2 µM (inactive),> 100 µM (inactive),> 100 µM (inactive),> 100 µM (inactive),> 100 µM (inactive),84.5 µM (inactive)
C/C(CC(=O)Nc1cc(Cl)c(Cl)cc1Cl)=N\NS(=O)(=O)c1ccc(C)cc1,29.3 µM (inactive),48.5 µM (inactive),21.6 µM (inactive),38.3 µM (inactive),41.9 µM (inactive),24.1 µM (inactive),33.4 µM (inactive),53.7 µM (inactive),27.4 µM (inactive),21 µM (inactive),32.6 µM (inactive),,32 µM (inactive),25.5 µM (inactive),45.7 µM (inactive),25.1 µM (inactive)
CCN(CC)C(=O)Cc1c(C(=O)N(CC)CC)c(=O)nc2sccn12,> 100 µM (inactive),> 100 µM (inactive),> 100 µM (inactive),,> 100 µM (inactive),> 100 µM (inactive),> 100 µM (inactive),> 100 µM (inactive),> 100 µM (inactive),> 100 µM (inactive),> 100 µM (inactive),> 100 µM (inactive),> 100 µM (inactive),> 100 µM (inactive),> 100 µM (inactive),> 100 µM (inactive)
CON(C)C(=O)CCCO,> 100 µM (inactive),> 100 µM (inactive),> 100 µM (inactive),> 100 µM (inactive),> 100 µM (inactive),> 100 µM (inactive),> 100 µM (inactive),> 10 µM (inactive),> 100 µM (inactive),> 100 µM (inactive),> 100 µM (inactive),> 100 µM (inactive),> 100 µM (inactive),> 100 µM (inactive),> 100 µM (inactive),> 100 µM (inactive)
c1ccc2c(NCCCCCCNc3cccc4ccccc34)cccc2c1,> 100 µM (inactive),> 100 µM (inactive),75.3 µM (inactive),60.3 µM (inactive),> 100 µM (inactive),51.5 µM (inactive),> 100 µM (inactive),> 100 µM (inactive),87.3 µM (inactive),98.2 µM (inactive),2.77 µM (inactive),> 100 µM (inactive),> 100 µM (inactive),> 100 µM (inactive),42 µM (inactive),> 100 µM (inactive)
O=[N+]([O-])c1cccc(C(O)/C(=N/O)c2nc3ccc(Cl)cc3nc2O)c1 (stereo not given),,> 100 µM (inactive),> 100 µM (inactive),> 100 µM (inactive),> 100 µM (inactive),> 100 µM (inactive),> 100 µM (inactive),> 100 µM (inactive),> 100 µM (inactive),> 100 µM (inactive),> 100 µM (inactive),> 100 µM (inactive),,> 100 µM (inactive),> 100 µM (inactive),> 100 µM (inactive)
